In ChEMBL document CHEMBL1201862, “PubChem BioAssay data set” (2004):
Calls of active or inactive are those of the source.

Columns and labels:
Format in all cases: functional
[1] = target: Delta-type opioid receptor (Homo sapiens, UniProt P41143); experiment: Counterscreen for agonists of heterodimerization of the mu 1 (OPRM1) and delta 1 (OPRD1) opioid receptors: Luminescence-based cell-based high throughput dose response assay to identify agonists of OPRD1 homodimerization. [Related pubchem assays (depositor defined):AID504326, AID504355, AID504692, AID504904, AID504905]
[2] = target: Mu-type opioid receptor (Homo sapiens, UniProt P35372); experiment: Counterscreen for agonists of heterodimerization of the mu 1 (OPRM1) and delta 1 (OPRD1) opioid receptors: Luminescence-based cell-based high throughput dose response assay to identify agonists of OPRM1 homodimerization.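 Further: U2OS cells expressing OPRM1 and beta-arrestin as split beta-galactosidase partners.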
[3] = target: 5-hydroxytryptamine receptor 5A (Homo sapiens, UniProt P47898); experiment: Counterscreen for agonists of OPRM1-OPRD1 heterodimerization: luminescence-based cell-based high throughput dose response assay to identify agonists of 5-hydroxytryptamine (serotonin) 5A receptor (HTR5A). [Related pubchem assays (depositor defined):AID504326, AID504355, AID504692, AID504904, AID504905]
[4] = system: CHO-K1; experiment: (§1) Counterscreen for antagonists of the orexin 1 receptor (OX1R; HCRTR1): Homogeneous time resolved fluorescence (HTRF)-based cell-based dose response assay to identify antagonists of the parental CHO-K1 cell line. [Related pubchem assays (depositor defined):AID434989, AID435008, AID463079, AID485270, AID492963, AID492964, AID492965, AID493232, AID504699, AID504701]; conditions: Cricetulus griseus
[5] = as §1, with “Fluorescence-based” for “Homogeneous time resolved fluorescence (HTRF)-based”, “cell-based high throughput” for “cell-based”, “CHO” for “CHO-K1”
[6] = target: T1, Orexin/Hypocretin receptor type 1 (Homo sapiens, UniProt O43613); experiment: Homogeneous Time Resolved Fluorescence (HTRF)-based cell-based high throughput dose response assay for antagonists of the orexin 1 receptor (OX1R; HCRTR1). [Related pubchem assays (depositor defined):AID434989, AID435008, AID463079, AID485270, AID492963, AID492964, AID492965, AID493232, AID504717, AID504718]
T1 sequence (O43613 whole entry): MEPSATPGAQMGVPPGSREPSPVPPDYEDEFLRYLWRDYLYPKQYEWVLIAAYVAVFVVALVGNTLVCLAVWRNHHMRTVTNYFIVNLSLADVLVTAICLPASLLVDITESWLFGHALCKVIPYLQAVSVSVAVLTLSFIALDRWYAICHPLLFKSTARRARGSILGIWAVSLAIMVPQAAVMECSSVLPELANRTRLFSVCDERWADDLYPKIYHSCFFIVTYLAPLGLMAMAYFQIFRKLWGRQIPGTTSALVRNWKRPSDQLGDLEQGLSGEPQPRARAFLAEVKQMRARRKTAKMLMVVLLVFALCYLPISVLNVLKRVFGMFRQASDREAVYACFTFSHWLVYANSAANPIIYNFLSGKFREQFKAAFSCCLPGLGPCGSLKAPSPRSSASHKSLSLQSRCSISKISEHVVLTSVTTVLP

[7] = target: T1, Orexin/Hypocretin receptor type 1; experiment: Fluorescence-based cell-based high throughput dose response assay for antagonists of the orexin 1 receptor (OX1R; HCRTR1). [Related pubchem assays (depositor defined):AID434989, AID435008, AID463079, AID485270, AID492963, AID492964, AID492965, AID493232, AID504717, AID504718]
[8] = target: T2, Orexin receptor type 2 (Homo sapiens, UniProt O43614); experiment: Counterscreen assay for antagonists of the orexin 1 receptor (OX1R; HCRTR1): Fluorescence-based cell-based dose response assay for antagonists of the orexin 2 receptor (OX2R; HCRTR2), run by assay provider.
T2 sequence (O43614 whole entry): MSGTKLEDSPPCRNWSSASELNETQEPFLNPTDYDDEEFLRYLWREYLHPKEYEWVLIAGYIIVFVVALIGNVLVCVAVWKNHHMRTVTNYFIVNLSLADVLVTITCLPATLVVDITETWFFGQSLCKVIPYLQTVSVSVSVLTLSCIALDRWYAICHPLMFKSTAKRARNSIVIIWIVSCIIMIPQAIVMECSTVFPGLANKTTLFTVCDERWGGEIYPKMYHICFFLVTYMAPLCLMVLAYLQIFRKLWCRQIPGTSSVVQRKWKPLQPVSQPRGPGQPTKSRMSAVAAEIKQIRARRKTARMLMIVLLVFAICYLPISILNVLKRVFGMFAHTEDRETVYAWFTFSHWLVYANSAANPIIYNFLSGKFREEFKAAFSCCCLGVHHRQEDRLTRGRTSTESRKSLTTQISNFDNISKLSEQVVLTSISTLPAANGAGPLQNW

[9] = target: T2, Orexin receptor type 2; experiment: Counterscreen assay for antagonists of the orexin 1 receptor (OX1R; HCRTR1): Homogeneous Time Resolved Fluorescence (HTRF)-based cell-based dose response assay for antagonists of the orexin 2 receptor (OX2R; HCRTR2), run by assay provider.
[10] = target: SUMO E1/E2 (Homo sapiens, UniProt P63279+Q9UBE0+Q9UBT2); experiment: SAR analysis of SUMOylation using HTRF in an in-Vitro dose response assay. [Related pubchem assays (depositor defined):AID2006, AID2011, AID2018, AID2069, AID2658]
[11] = target: T3, Voltage-gated N-type calcium channel alpha-1B subunit/Amyloid beta A4 precursor protein-binding family A member 1 (Homo sapiens, UniProt Q00975+Q02410); experiment: disruptors of Mint-PDZ/N-type channel peptide interaction – biochemical, HTRF, set 2, SAR follow-up (AID 434980)
[12] = target: T3, Voltage-gated N-type calcium channel alpha-1B subunit/Amyloid beta A4 precursor protein-binding family A member 1; experiment: disruptors of Mint-PDZ/N-type channel peptide interaction – biochemical, HTRF, SAR follow-up (AID 2489)
[13] = target: Intestinal-type alkaline phosphatase (Mus musculus, UniProt P24822); experiment: PubChem AID 488785
[14] = target: T4, Alkaline phosphatase, tissue-nonspecific isozyme (Homo sapiens, UniProt P05186); experiment: TNAP enzyme inhibition by screening hits, dose response, selectivity assay for mouse IAP inhibitor project, biochemical, human TNAP, uHTS hits (AID 488906)
T4 sequence (P05186 whole entry): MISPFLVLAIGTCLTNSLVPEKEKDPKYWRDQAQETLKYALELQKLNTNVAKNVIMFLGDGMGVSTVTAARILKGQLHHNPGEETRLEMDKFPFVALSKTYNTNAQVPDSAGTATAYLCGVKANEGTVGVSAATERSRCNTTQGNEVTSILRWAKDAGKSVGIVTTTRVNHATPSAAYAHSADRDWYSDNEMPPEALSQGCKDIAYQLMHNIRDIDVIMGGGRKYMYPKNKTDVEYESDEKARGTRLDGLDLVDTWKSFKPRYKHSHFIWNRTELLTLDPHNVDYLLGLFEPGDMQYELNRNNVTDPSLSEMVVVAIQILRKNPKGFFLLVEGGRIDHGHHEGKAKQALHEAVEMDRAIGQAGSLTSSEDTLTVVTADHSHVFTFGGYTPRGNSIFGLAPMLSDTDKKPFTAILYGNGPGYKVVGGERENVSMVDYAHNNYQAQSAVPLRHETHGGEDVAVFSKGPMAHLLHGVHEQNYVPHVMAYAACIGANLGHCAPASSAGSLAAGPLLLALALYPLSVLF

[15] = target: Intestinal-type alkaline phosphatase (Homo sapiens, UniProt P09923); experiment: inhibition of human intestinal alkaline phosphatase – biochemical, dose response (AID 488876)
[16] = target: Phospholipase D1 (Homo sapiens, UniProt Q13393); experiment: cellular phospholipase D1 inhibition IC50 – cell-based, dose response (AID 602151);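 further: cellular PLD1 assay in Calu-1 cells stimulated with PMA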
[17] = target: Phospholipase D2 (Homo sapiens, UniProt O14939); experiment: cellular phospholipase D2 inhibition IC50 – cell-based, dose response (AID 602147);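 further: cellular assay in HEK293 cells overexpressing GFP-tagged PLD2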
[18] = target: Beta-galactosidase (Escherichia coli, UniProt Q8VNN2); experiment: PubChem AID 485352
[19] = microbe, parasite or virus in culture; conditions: Mycobacterium tuberculosis
[20] = target: Type-1 angiotensin II receptor (Homo sapiens, UniProt P30556); experiment: antagonism of angiotensin II type 1 receptor – cell-based, uHTS hits, selectivity assay for APJ receptor antagonist project, dose response (AID 463214);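 further: antagonist potency against angiotensin II stimulated AT1 response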

T3 sequence (Q00975 whole entry): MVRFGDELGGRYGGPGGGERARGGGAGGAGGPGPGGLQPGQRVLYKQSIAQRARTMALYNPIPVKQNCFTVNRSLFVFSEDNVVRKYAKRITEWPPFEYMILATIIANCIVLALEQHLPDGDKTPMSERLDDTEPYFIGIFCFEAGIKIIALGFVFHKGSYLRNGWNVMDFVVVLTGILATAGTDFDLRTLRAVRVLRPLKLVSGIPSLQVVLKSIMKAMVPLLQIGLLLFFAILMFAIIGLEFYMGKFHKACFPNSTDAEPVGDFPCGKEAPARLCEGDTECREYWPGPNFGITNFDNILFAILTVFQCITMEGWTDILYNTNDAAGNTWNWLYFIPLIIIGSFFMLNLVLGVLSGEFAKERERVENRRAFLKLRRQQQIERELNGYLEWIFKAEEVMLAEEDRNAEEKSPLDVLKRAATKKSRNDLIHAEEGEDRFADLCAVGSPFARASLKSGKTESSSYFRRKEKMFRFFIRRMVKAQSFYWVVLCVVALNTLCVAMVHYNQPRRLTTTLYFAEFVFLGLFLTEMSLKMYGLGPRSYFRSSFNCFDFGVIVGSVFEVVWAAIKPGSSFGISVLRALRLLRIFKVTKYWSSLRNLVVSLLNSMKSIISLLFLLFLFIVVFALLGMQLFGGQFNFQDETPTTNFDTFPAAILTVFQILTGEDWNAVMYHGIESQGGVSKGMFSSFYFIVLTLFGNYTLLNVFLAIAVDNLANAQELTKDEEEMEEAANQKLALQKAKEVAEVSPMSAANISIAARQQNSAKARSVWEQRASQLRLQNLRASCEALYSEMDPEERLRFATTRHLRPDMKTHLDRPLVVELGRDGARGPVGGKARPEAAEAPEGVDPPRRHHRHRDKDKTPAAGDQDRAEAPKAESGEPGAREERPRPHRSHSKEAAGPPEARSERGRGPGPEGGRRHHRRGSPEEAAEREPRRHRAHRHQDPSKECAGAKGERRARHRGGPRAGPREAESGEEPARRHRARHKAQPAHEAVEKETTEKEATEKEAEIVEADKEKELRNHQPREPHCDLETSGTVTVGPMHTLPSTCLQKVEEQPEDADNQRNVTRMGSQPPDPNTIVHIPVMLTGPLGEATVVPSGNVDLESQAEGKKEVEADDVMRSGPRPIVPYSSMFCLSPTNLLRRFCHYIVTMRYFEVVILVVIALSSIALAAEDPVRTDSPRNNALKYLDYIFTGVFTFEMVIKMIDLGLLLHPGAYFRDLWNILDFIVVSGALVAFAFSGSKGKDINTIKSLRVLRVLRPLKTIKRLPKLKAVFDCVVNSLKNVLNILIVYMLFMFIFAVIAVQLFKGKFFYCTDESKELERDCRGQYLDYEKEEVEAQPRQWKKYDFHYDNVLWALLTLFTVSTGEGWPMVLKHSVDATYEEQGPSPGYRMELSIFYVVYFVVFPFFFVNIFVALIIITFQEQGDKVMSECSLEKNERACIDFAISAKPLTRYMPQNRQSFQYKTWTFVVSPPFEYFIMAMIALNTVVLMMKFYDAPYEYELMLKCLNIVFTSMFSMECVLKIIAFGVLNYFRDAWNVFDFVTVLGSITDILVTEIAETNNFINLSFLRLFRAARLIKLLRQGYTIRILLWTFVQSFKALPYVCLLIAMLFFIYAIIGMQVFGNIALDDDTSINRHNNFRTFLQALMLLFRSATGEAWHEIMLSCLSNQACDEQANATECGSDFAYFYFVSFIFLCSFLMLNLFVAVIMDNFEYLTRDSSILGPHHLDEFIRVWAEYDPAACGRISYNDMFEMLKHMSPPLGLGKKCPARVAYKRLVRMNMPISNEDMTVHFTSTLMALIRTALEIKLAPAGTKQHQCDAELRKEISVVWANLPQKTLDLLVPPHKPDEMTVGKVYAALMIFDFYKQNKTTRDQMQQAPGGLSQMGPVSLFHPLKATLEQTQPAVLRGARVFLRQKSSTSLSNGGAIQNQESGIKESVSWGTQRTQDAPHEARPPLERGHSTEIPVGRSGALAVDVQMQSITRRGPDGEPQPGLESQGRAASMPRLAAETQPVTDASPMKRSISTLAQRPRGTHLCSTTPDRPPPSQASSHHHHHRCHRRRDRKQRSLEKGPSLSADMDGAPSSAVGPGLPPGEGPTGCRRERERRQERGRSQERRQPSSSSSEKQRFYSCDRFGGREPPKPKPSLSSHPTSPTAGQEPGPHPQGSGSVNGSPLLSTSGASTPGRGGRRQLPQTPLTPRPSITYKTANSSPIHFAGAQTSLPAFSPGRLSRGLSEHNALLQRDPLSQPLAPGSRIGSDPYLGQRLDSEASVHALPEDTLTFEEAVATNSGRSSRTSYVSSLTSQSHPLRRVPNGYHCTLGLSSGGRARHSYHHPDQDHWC
T3 sequence (Q02410 whole entry): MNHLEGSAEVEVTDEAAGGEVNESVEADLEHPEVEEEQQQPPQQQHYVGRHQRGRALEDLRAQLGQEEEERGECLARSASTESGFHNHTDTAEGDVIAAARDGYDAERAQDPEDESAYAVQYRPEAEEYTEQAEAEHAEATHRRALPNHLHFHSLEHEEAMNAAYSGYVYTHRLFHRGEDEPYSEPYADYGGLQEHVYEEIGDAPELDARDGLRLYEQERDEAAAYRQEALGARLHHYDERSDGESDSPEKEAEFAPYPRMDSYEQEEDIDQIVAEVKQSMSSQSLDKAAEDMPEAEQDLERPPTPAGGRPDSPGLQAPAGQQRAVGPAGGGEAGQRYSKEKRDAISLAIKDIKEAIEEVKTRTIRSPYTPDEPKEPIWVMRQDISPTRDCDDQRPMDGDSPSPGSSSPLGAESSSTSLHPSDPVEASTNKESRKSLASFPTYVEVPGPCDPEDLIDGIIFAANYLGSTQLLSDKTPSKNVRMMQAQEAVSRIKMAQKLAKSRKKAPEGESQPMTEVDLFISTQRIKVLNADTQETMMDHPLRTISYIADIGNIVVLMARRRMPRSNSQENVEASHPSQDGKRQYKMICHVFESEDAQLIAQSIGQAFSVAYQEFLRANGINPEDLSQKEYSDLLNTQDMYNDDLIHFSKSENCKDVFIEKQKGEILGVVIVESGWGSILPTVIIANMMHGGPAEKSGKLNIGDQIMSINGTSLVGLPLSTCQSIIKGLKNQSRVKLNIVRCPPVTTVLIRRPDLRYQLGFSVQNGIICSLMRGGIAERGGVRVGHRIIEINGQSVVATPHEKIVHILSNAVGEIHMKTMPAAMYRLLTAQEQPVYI
SUMO E1/E2, sequence (Q9UBE0 whole entry): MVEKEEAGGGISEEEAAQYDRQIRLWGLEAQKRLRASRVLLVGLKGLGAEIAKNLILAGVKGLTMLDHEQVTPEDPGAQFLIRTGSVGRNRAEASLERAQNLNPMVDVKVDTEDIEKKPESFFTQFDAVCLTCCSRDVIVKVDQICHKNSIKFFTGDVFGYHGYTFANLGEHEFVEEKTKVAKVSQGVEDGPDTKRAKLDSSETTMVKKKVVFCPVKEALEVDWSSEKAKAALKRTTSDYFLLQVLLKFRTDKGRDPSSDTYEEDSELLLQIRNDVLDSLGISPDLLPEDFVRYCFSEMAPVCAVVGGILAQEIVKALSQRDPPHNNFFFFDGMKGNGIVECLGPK
SUMO E1/E2, sequence (Q9UBT2 whole entry): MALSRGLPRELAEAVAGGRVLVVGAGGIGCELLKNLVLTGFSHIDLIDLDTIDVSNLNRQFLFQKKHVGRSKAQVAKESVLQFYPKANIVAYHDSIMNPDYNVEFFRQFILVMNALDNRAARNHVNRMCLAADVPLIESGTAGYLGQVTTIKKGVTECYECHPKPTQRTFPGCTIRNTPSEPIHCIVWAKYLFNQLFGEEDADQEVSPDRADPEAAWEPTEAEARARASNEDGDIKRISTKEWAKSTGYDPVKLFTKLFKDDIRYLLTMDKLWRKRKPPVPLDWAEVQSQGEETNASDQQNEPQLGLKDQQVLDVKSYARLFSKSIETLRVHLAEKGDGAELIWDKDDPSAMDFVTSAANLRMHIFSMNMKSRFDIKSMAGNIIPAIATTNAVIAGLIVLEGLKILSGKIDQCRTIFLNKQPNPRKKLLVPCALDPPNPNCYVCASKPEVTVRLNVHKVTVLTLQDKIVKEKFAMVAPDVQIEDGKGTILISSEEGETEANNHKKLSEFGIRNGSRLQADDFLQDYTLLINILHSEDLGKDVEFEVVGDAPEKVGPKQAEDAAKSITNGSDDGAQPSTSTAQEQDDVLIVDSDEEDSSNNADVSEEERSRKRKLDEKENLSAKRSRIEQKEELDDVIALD
SUMO E1/E2, sequence (P63279 whole entry): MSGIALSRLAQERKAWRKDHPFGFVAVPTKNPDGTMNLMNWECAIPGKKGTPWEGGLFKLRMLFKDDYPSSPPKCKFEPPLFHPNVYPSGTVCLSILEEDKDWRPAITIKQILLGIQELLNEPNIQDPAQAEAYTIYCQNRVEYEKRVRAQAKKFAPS
Intestinal-type alkaline phosphatase (Mus musculus, UniProt P24822), sequence (P24822 whole entry): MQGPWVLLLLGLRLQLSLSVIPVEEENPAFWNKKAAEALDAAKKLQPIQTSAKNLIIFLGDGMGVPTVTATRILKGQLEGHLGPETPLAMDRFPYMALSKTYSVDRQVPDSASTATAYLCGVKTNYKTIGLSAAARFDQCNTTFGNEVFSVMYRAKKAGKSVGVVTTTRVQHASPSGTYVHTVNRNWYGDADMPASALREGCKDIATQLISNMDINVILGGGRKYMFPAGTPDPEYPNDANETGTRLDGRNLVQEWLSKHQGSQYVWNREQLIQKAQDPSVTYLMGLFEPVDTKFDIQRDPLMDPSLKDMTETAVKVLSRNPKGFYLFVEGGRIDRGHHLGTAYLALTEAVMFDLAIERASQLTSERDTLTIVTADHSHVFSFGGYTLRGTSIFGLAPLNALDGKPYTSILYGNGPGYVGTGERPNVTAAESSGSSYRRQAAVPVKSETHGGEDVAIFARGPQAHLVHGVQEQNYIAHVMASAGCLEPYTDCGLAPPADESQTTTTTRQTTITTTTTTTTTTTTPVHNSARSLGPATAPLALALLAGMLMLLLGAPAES

## CC(CC(=O)N(CCC1=CCCCC1)c1c(N)n(Cc2ccccc2)c(=O)[nH]c1=O)c1ccccc1 (stereo not given)
[1]
  EC50: > 92.5 µM (inactive)
[2]
  EC50: > 92.5 µM (inactive)
[3]
  EC50: > 92.5 µM (inactive)

## Cn1c2ccccc2c(=O)c2cc(C#Cc3cccc(N)c3)ccc21
[4]
  IC50: > 66.3 µM (inactive)
[5]
  IC50: > 49.8 µM (inactive)
[6]
  IC50: 1.5 µM (active)
[7]
  IC50: 1.69 µM (active)
[8]
  IC50: > 88.8 µM (inactive)
[9]
  IC50: 0.07 µM (active)

## COc1ccccc1CCNC(=O)COC(=O)c1cc(-c2ccco2)nc2ccccc12
[10]
  IC50: 25.3 µM (active)
[11]
  IC50: 17.4 µM (active)
[12]
  IC50: 28.5 µM (active)

## COc1cccc(NC(=O)CN(C)S(=O)(=O)c2ccc3nc(O)oc3c2)c1
[13]
  IC50: 4.03 µM (active)
[14]
  IC50: > 100 µM (inactive)
[15]
  IC50: > 100 µM (inactive)

## COc1ccc(CNC(=O)c2cc(-c3ccco3)nc3ccccc23)cc1
[10]
  IC50: 2.61 µM (active)
[11]
  IC50: 20.3 µM (active)
[12]
  IC50: > 56.8 µM (inactive)

## Cc1ccc(C(=O)N[C@@H](C)CN2CCC(n3c(=O)[nH]c4cc(Br)ccc43)CC2)cc1
[16]
  IC50: 0.007 µM (active)
[17]
  IC50: 2.8 µM (active)

## C[C@@H](CN1CC=C(n2c(=O)[nH]c3ccccc32)CC1)NC(=O)[C@H]1C[C@@H]1c1ccccc1
[16]
  IC50: 0.48 µM (active)
[17]
  IC50: 20 µM (active)

## CC1CC2=C(CC1/C=N/NC(N)=S)C(C)(C)CCC2 (stereo not given)
[18]
  EC50: > 40 µM (inactive)
[19]
  CC50: 20.9 µM (active)
[20]
  IC50: 22.6 µM (not active)
